Patent publication EP4775209A1 (Ascentawits Pharmaceuticals, Ltd., priority 2023, dated 2025)

Experiments:
[1] = GLP repeated-administration toxicity study (QD×5/21 Days) in monkeys; assay type: in vivo, cynomolgus monkeys; settings: 5 cycles
Description: In a GLP repeated-administration toxicity study in cynomolgus monkeys, AS-3424 was intravenously infused to cynomolgus monkeys at doses of 0, 0.1, 0.2, or 0.4/0.3 mg/kg over 30 minutes on Days 1-5, Days 22-26, Days 43-47, Days 64-68, and Days 85-89.
During the trials, a decrease in #EOS (absolute eosinophil count), %EOS (% eosinophils), #RET (absolute reticulocyte count), and %RETIC (% reticulocytes) was primarily observed in the ≥0.1 mg/kg dose groups; a decrease in #NEUT, #LYMPH (lymphocyte absolute count), and %LYMPH (% lymphocyte) was also seen in the ≥ 0.2 mg/kg dose groups; and a decrease in WBC (white blood cell), HGB (hemoglobin), and HCT (hematocrit) was also seen in the 0.4/0.3 mg/kg dose group. Among them, the reduction in eosinophils was correlated with the reduction in the percentage of eosinophils in the bone marrow smears at the end of the administration period, and the decrease in lymphocytes was correlated with the reduction of lymphocytes in the thymic cortex under microscopic examination, which were considered to be secondary stress responses. All the above hematological changes were recoverable during the recovery period.

[2] = test system: HuPrime® lung cancer LU5161 subcutaneous xenograft model
Text: (§1) For the experimental procedures and relevant evaluation indicators of the aforementioned solid tumor animal efficacy models, please refer to Examples 7, 8, and 9 in Patent Application 1, namely PCT/US2016/062114, with Publication No. WO2017/087428 (corresponding to Chinese Application CN201680044608.1, with Publication No. CN108290911B), Examples 3 and 4 in Patent Application 2, namely PCT/CN2021/078115, with Publication No. WO2022178821, and Research Literature 1. The aforementioned non-clinical animal efficacy models (PDX) mentioned in the present application are all similar to those in the aforementioned literatures, and the specific operation procedures thereof are not described herein again.
LU5161 is a HuPrime® xenograft model established from a lung tumor (small cell lung cancer) of a patient.
(§2) Efficacy was evaluated based on the relative tumor growth inhibition rate (TGI, %), and safety was evaluated based on animal body weight changes and mortality.

[3] = test system: HuPrime® pancreatic cancer PA1170 subcutaneous xenograft model; assay: Pancreatic cancer PA1170 subcutaneous xenograft efficacy model; assay type: in vivo, BALB/c nude mice; settings: for TGI (%): Day 30, P<0.05; for mean tumor volume: Day 30 after first administration
[4] = GLP repeated-administration toxicity study (D1+D8/21 Days) in monkeys; assay type: in vivo, cynomolgus monkeys
Description: In a GLP repeated-administration toxicity study in cynomolgus monkeys, AS-3424 was intravenously infused to cynomolgus monkeys at doses of 0, 0.1, 0.3, and 0.6 mg/kg over 30 minutes on Days 1, 8, 22, and 29. […] Ultimately, the highest non-severe toxic dose (HNSTD) in monkeys was determined to be 0.6 mg/kg.

[5] = test system: HuPrime® pancreatic cancer PA2637 subcutaneous xenograft model
Text: as §1
PA2637 is a HuPrime® xenograft model established from a pancreatic cancer tumor of a patient.
as §2

[6] = 1 mg/kg QD×5, 2 cycles, 6 mice per group
[7] = 2 mg/kg once weekly for 2 weeks

C[C@H](OP(=O)(N1CC1)N1CC1)c1ccc([N+](=O)[O-])c(Oc2cccc(C(=O)N(C)C)c2)c1 [AST-3424]
toxic target organs ([1]; 0.1, 0.2, 0.4/0.3 mg/kg QD×5 per 21 days): duodenum, jejunum, colon, and cecum
HNSTD ([1]; 30-minute i.v. infusion QD×5 per 21 days): 0.3 mg/kg
tumor clearance [2, 6]: the tumor in one mouse was cleared
tolerability (body weight changes and mortality) ([2]; 1 mg/kg QD×5, 2 cycles, no animal deaths): well tolerated
TGI (%) ([2]; day 29 after first administration, AST-3424 1 mg/kg QD×5, 16 days off, QD×5 (P < 0.001), ifosfamide 60 mg/kg QD×5/week for 2 weeks (p > 0.05)): 95.62%
mean tumor volume ([2]; day 29 after first administration, AST-3424 1 mg/kg QD×5, 16 days off, QD×5, ifosfamide 60 mg/kg QD×5/week for 2 weeks, negative control 2238.97): 94.42 mm^3
TGI (%) ([3]; 1 mg/kg QD×5, 16 days off, QD×5): 97.60%
mean tumor volume ([3]; 1 mg/kg QD×5, 16 days off, QD×5, vehicle 1182.66): 29.50 mm^3
TGI (%) [3, 7]: 94.83%
mean tumor volume [3, 7]: 64.50 mm^3
tolerability (body weight changes and mortality) ([3]; AST-3424 groups 1 mg/kg QD×5 and 2 mg/kg QW, no animal deaths, no apparent drug toxicity): well tolerated
most prominent toxic reaction ([4]; 0.1, 0.3, 0.6 mg/kg on Days 1, 8, 22, 29, intestinal necrosis/hyperplasia in pathology): diarrhea and vomiting
highest non-severe toxic dose (HNSTD) ([4]; 30-minute i.v. infusion on Days 1, 8, 22, 29): 0.6 mg/kg
tumor clearance [5, 6]: the tumor in one mouse was cleared
tolerability (body weight changes and mortality) ([5]; 1 mg/kg QD×5, 2 cycles, no animal deaths, no apparent drug toxicity): well tolerated
TGI (%) ([5]; Day 36 after first administration, AST-3424 1 mg/kg QD×5, 16 days off, QD×5 (P < 0.001), ifosfamide 60 mg/kg QD×5/week for 2 weeks (no statistical difference)): 80.78%
mean tumor volume ([5]; Day 36 after first administration, AST-3424 1 mg/kg QD×5, 16 days off, QD×5, ifosfamide 60 mg/kg QD×5/week for 2 weeks, vehicle 977.46): 186.08 mm^3
